{
  "source": "patent US20240409934A1",
  "about": "“FOXO1-TARGETED THERAPY FOR THE TREATMENT OF CANCER” (BOARD OF REGENTS, THE UNIVERSITY OF TEXAS SYSTEM, priority 2021, published 2024)",
  "key": {"[1]": {"tested_on": "MDA-MB-468", "assay": "Colony formation assay (crystal violet)", "format": "cell-based", "conditions": "treated five days"}, "[2]": {"tested_on": "U87MG CSCs", "assay": "Gene expression by qRT-PCR in cancer stem cells", "format": "cell-based", "conditions": "1 μM for 48 hours", "method": "(§1) Cell culture and drug treatments. Cell lines were obtained from ATCC (American Type Culture Collection, Manassas, VA) and grown under standard conditions (5% CO2, 10% FBS (fetal bovine serum), with 5% antifungal/antibacterial). Cell lines were tested for Mycoplasma using the MycoAlert Mycoplasma Detection Kit (Lonza, Basel Switzerland, cat: LT07-218); all experiments were done with mycoplasma negative cells. U87MG cells were propagated in MEM (Minimal Essential Medium). BT549 and DBTRG cells were propagated in RPMI (Roswell Park Memorial Institute 1640 Medium). LN18, U118MG, A172 and LN229 cells were propagated in DMEM (Dulbecco's Modified Eagle Medium). Neurosphere/cancer stem cell cultures for U87MG and BT549 cell lines were plated with 40,000 cells per mL in 3D Tumorsphere Medium XF (Sigma cat: C-28070, Burlington, MA). BT549 cancer stem cell cultures were supplemented with 1XB27 XenoFree CTS (Gibco/Thermo Fisher Waltham, MA, USA). AS1842856 was purchased from Calbiochem (Danvers, MA) and utilized at 200 nM, 500 nM and 1 μM final concentrations as indicated. […] Samples (cDNAs) were analyzed using (Power SYBR Green Master Mix, Applied Biosystems, Foster City, CA) and the ABI Step-One Real-time system (Carlsbad, CA). Expression levels were normalized to Beta-Tubulin, TUBB in gene expression experiments and calculated using 2-4ACT method (Livak et al., 2001). […]"}, "[3]": {"tested_on": "BT549 CSCs", "assay": "Gene expression by qRT-PCR in cancer stem cells", "format": "cell-based", "conditions": "1 μM for 48 hours", "method": "as §1"}, "[4]": {"tested_on": "HCT116 colon cancer cells", "assay": "Gene expression by qRT-PCR (TUBB reference)", "format": "cell-based", "conditions": "48 hours"}, "[5]": {"molecular_target": "FOXO1 (Homo sapiens, UniProt Q12778)", "sequence (Q12778 whole entry, species assumed)": "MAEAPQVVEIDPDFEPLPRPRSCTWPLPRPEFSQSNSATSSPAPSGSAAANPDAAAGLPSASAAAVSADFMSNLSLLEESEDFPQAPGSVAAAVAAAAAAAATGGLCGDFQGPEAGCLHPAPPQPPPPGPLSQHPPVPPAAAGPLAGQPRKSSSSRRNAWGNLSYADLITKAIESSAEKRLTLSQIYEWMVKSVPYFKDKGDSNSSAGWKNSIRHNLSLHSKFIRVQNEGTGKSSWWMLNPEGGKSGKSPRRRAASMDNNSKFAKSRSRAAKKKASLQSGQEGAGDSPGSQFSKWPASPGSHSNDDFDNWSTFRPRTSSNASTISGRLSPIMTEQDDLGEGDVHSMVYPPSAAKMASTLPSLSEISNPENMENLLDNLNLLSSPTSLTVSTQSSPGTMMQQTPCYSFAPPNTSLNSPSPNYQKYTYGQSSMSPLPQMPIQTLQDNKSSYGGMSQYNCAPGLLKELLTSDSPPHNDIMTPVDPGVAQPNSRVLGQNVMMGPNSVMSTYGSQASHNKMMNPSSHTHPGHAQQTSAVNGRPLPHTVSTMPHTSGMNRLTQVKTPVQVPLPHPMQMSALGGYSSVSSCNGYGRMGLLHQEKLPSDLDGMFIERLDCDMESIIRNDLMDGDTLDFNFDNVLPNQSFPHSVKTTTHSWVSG", "conditions": "cited from earlier work"}, "[6]": {"tested_on": "BT549 cells", "assay": "Gene expression by qRT-PCR (TUBB reference)", "format": "cell-based", "method": "(§2) Cell culture and drug treatments. Cell lines were obtained from ATCC (American Type Culture Collection, Manassas, VA) and grown under standard conditions (5% CO2, 10% FBS (fetal bovine serum), with 5% antifungal/antibacterial). Cell lines were tested for Mycoplasma using the MycoAlert Mycoplasma Detection Kit (Lonza, Basel Switzerland, cat: LT07-218); all experiments were done with mycoplasma negative cells. U87MG cells were propagated in MEM (Minimal Essential Medium). BT549 and DBTRG cells were propagated in RPMI (Roswell Park Memorial Institute 1640 Medium). LN18, U118MG, A172 and LN229 cells were propagated in DMEM (Dulbecco's Modified Eagle Medium). Neurosphere/cancer stem cell cultures for U87MG and BT549 cell lines were plated with 40,000 cells per mL in 3D Tumorsphere Medium XF (Sigma cat: C-28070, Burlington, MA). BT549 cancer stem cell cultures were supplemented with 1XB27 XenoFree CTS (Gibco/Thermo Fisher Waltham, MA, USA). AS1842856 was purchased from Calbiochem (Danvers, MA) and utilized at 200 nM, 500 nM and 1 μM final concentrations as indicated. AS1708727 was purchased from MedChem Express (Monmouth Junction, NJ) and was used at 0.5 μM, 1.0 µM and 2.0 μM concentrations. 5-aza-2'-deoxycytidine (5-AZA) was purchased from Millipore/Sigma (Burlington, MA) and utilized at a final concentration of 3 μM. Total RNA was prepared using the Qiagen RNeasy kit (Hilden, Germany), which was then used to generate cDNA using Superscript Reverse Transcriptase II (Invitrogen, Carlsbad, CA). Samples (cDNAs) were analyzed using (Power SYBR Green Master Mix, Applied Biosystems, Foster City, CA) and the ABI Step-One Real-time system (Carlsbad, CA). Expression levels were normalized to Beta-Tubulin, TUBB in gene expression experiments and calculated using 2-4ACT method (Livak et al., 2001). Primer sequences are detailed in Table 1. MDA-MB-468 cells were grown to log phase in DMEM with 10% FBS without antibiotics. BT549 cells were grown to log phase in DMEM with 10% FBS without antibiotics. Cells were transfected with FOXO1 esiRNA (EHU156591 Sigma, St. Louis, MO) or EGFP control esiRNA (EHUEGFP) using Lipofectamine 3000 (utilized only […] reagent, Invitrogen, Carlsbad, CA)."}, "[7]": {"tested_on": "MDA-MB-468 cells", "assay": "Gene expression by qRT-PCR (TUBB reference)", "format": "cell-based", "method": "as §2"}, "[8]": {"tested_on": "BT549", "assay": "Western blot for cleaved caspase 3", "format": "cell-based", "method": "(§3) Total protein was obtained from indicated cells by rinsing cells with 1×PBS (phosphate buffered saline) followed by directed lysis in 2× sample buffer (125 mM Tris-HCL at pH 6.8, 2% sodium dodecyl sulfate (SDS), 10% 2-mercaptoethanol, 20% glycerol, 0.05% bromophenol blue, 8 M urea); 2× sample buffer was added to each well and cells scraped with a cell scraper. The lysate was collected from each well, placed into a 1.5 mL microcentrifuge tube and heated for 10 minutes at 95° C. in a dry-bath heat block. Protein lysates were separated by sodium dodecyl sulfate-polyacrylamide gel electrophoresis (SDS-PAGE) at 100V for 1 hour. […] Data was analyzed with NIH Image J. Antibodies were obtained from Cell Signaling Technologies (Danvers, MA): Cleaved Caspase 3 antibody (cat: 94530). […]"}, "[9]": {"tested_on": "LN229", "assay": "Western blot for cleaved caspase 3", "format": "cell-based", "method": "as §3"}},
  "data": [
    {"smiles": "CCn1cc(C(=O)O)c(=O)c2c(N)c(F)c(NC3CCCCC3)cc21", "note": "[AS1842856, 5-Amino-7-(cyclohexylamino)-1-ethyl-6-fluoro-4-oxo-1,4-dihydroquinoline-3-carboxylic acid]", "values": [
      {"measurement": "colony formation", "setting": "[1]", "value": "fewer cells with 200 nM drug treatment with further reductions using 500 nM and 1 μM drug"},
      {"measurement": "FAS and BIM expression", "setting": "[2]", "value": "FAS and BIM were induced"},
      {"measurement": "FAS and BIM expression", "setting": "[3]", "value": "FAS and BIM were induced"},
      {"measurement": "FAS gene expression", "setting": "[4]", "value": "induced the FAS gene"},
      {"measurement": "FOXO1 DNA binding and transactivation", "setting": "[5]", "value": "reduces DNA binding and transactivation"},
      {"measurement": "FAS and BIM gene induction, comparison of the two inhibitors", "setting": "[6]", "value": "robustly caused FAS and BIM"},
      {"measurement": "FOXO1 gene expression", "setting": "[6]; 1 μM for 48 hours", "value": "increased FOXO1 gene expression"},
      {"measurement": "apoptotic genes FAS and/or BIM expression", "setting": "[6]; 1 μM for 48 hours", "value": "induced apoptotic genes FAS and/or BIM"},
      {"measurement": "FAS and BIM gene induction, comparison of the two inhibitors", "setting": "[7]", "value": "robustly caused FAS and BIM"},
      {"measurement": "apoptotic genes FAS and/or BIM expression", "setting": "[7]; 1 μM for 48 hours", "value": "induced apoptotic genes FAS and/or BIM"},
      {"measurement": "FOXO1 expression", "setting": "[7]; 48 hours of treatment", "value": "decreased FOXO1 expression"},
      {"measurement": "caspase 3 cleavage", "setting": "[8]", "value": "positive for caspase 3 cleavage"},
      {"measurement": "caspase 3 cleavage", "setting": "[9]", "value": "positive for caspase 3 cleavage"}
    ]}
  ]
}
